The record followed here is patent US7115617B2, “Amino-substituted pyrimidinyl derivatives and methods of use” (Amgen Inc., priority 2001, dated 2006).

For the assay, the system named is 3T3 proliferation. As to the kind of experiment: IGF-1-induced DNA synthesis (3H-thymidine incorporation). The settings on record: Rattus norvegicus; activated overnight with 50 ng/mL IGF-1; read-out: inhibited 3T3 proliferation (IC50, thymidine incorporation). Type of assay: cell-based. As to the method: Human tumor cell lines or a rat fibroblast cell line are plated out in flat-well plates in complete medium and allowed to adhere overnight. The cells are then starved in medium containing 0.1% bovine serum albumin (BSA) overnight, pre-incubated for 1 h with or without dilutions of compound, then activated overnight with 50 ng/mL insulin-like growth factor (IGF-1). Proliferation is determined by the level of ^3H-thymidine incorporation into DNA. IC50's are determined by comparing the level of thymidine incorporation found in the presence of compound compared to controls.
Consider `COc1cc(Nc2nccc(Nc3cc(-c4ccccc4)on3)n2)ccc1N1CCOCC1` [Example 14, N^2-(3-Methoxy-4-morpholin-4-yl-phenyl)-N^4-(5-phenyl-isoxazol-3-yl)-pyrimidine-2,4-diamine], for which the IC50 was less than 150 nM.
On to `COc1cc(Nc2nccc(Nc3cc(-c4ccccc4)on3)n2)cc(OC)c1OC` [Example 15, N^2-(3,4,5-Trimethoxyphenyl)-N^4-(5-phenylisoxazol-3-yl)-2,4-pyrimidinediamine], for which the IC50 is less than 150 nM.
Take `COc1cc(Nc2nccc(Nc3cc(C4CCCCC4)no3)n2)cc(OC)c1OC` [Example 17, N^2-(3,4,5-Trimethoxyphenyl)-N^4-(3-cyclohexylisoxazol-5-yl)-2,4-pyrimidinediamine]: the IC50 was less than 150 nM.
Under `COc1cc(C)c(Nc2nccc(Nc3cc(C45CC6CC(CC(C6)C4)C5)on3)n2)cc1OC` [Example 18, N^2-(4,5-Dimethoxy-2-methylphenyl)-N^4-(5-adamantylisoxazol-3-yl)-2,4-pyrimidinediamine] stands less than 150 nM.
